Data taken from patent publication US8530493B2, “Indolopyridines as Eg5 kinesin modulators” (4SC AG, priority 2006, dated 2013).

Columns and labels:
Type in all cases: cell-based
[1] = test system: RKO p27 uninduced (proliferating) colon adenocarcinoma cells; assay: Alamar Blue cell viability assay, RKO p27 uninduced (proliferating); conditions: Homo sapiens, RKOp27, Table B1, anti-proliferative/cytotoxic activity, 72 hours, read-out: −log EC50 RKO p27 uninduced (proliferating) (converted)
Experimental: The anti-proliferative/cytotoxic activity of the compounds described herein can be tested on subclones of RKO human colon adenocarcinoma cells (Schmidt et al., Oncogene 19, 2423-2429; 2000) using the Alamar Blue cell viability assay (described in O'Brien et al. Eur J Biochem 267, 5421-5426, 2000). The compounds are dissolved as 10 mM solutions in DMSO and subsequently diluted in semi-logarithmic steps. DMSO dilutions are further diluted 1:100 into Dulbecco's modified Eagle's medium (DMEM) containing 10% fetal calf serum to a final concentration twice as much as the final concentration in the test. RKO subclones are seeded into 96 well flat bottom plates at a density of 4000 cells per well in a volume of 50 μl per well. 24 hours after seeding the 50 μl each of the compound dilutions in DMEM medium are added into each well of the 96 well plate. Each compound dilution is tested as triplicates. Wells containing untreated control cells are filled with 50 μl DMEM medium containing 1% DMSO. The cells are then incubated with the substances for 72 hours at 37° C. in a humidified atmosphere containing 5% carbon dioxide. To determine the viability of the cells, 10 μl of an Alamar Blue solution (Biosource) are added and the fluorescence is measured at an extinction of 544 nm and an emission of 590 nm. For the calculation of the cell viability the emission value from untreated cells is set as 100% viability and the emission rates of treated cells are set in relation to the values of untreated cells. Viabilities are expressed as % values. The Graphpad Prism program is used for the calculation of EC50 values for anti-proliferative/cytotoxic activity out of the obtained dose-response curves.
(§1) To determine the cell cycle specific mode of action, subclones of RKO colon adenocarcinoma cells (RKOp21 or RKOp27 as described by Schmidt et al. in Oncogene 19, 2423-2429; 2000) are seeded into 96 well flat bottom plates at a density of 16000 cells per well in a volume of 50 μl per well in DMEM growth medium with 10% FCS containing 10 μM Ponasterone A. 24 hours after seeding the 50 μl each of the compound dilutions in DMEM medium are added into each well of the 96-well plate. Each compound dilution is tested as triplicates. Wells containing untreated control cells are filled with 50 μl DMEM medium containing 1% DMSO. The cells are then incubated with the substances for 72 hours at 37° C. in a humidified atmosphere containing 5% carbon dioxide. To determine the viability of the cells, 10 μl of an Alamar Blue solution (Biosource) are added and the fluorescence is measured at an extinction of 544 nm and an emission of 590 nm. For the calculation of the cell viability the emission value from untreated cells is set as 100% viability and the emission rates of treated cells are set in relation to the values of untreated cells. Viabilities are expressed as % values. The Graphpad Prism program (GraphPad Software, Inc) is used for the calculation of EC50 values out of the obtained dose-response curves. Viability is compared of proliferating cells grown in the absence of the inducer Ponasterone A, versus viability of cells arrested by the expression of ectopic p27Kip1 induced by Ponasterone A.
(§2) Representative values for anti-proliferation/cytotoxicity [measured as −log EC50 (mol/l)] determined in the aforementioned assays follow from the following tables B1, B2 and B3, in which the numbers of the compounds correspond to the numbers of the examples.

[2] = test system: RKO p27 induced (arrested) colon adenocarcinoma cells; assay: Alamar Blue cell viability assay, RKO p27 induced by Ponasterone A (arrested); conditions: Homo sapiens, RKOp27, Table B1, cells arrested by Ponasterone A-induced p27Kip1, 72 hours, read-out: −log EC50 RKO p27 induced (arrested) (converted)
Experimental: as §1, §2

[3] = test system: RKO p27 or p21 induced (arrested) colon adenocarcinoma cells; assay: Alamar Blue cell viability assay, RKO p27 or p21 induced (arrested); conditions: Homo sapiens, RKOp27, Table B2, cells arrested by Ponasterone A, 72 hours, read-out: −log EC50 RKO p27 or p21 induced (arrested) (converted)
Outline: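 RKOp21 or RKOp27 subclones in DMEM/10% FCS with 10 μM Ponasterone A to induce p21/p27 arrest, seeded 24 h before compound; triplicate 72 h exposure at 37 °C. Alamar Blue fluorescence (544/590 nm) as % of untreated (1% DMSO) cells; EC50 from dose-response curves, reported as −log EC50 (mol/l).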

[4] = test system: RKO p27 or p21 uninduced (proliferating) colon adenocarcinoma cells; assay: Alamar Blue cell viability assay, RKO p27 or p21 uninduced (proliferating); conditions: Homo sapiens, RKOp27, 72 h, Table B2, anti-proliferative/cytotoxic activity, read-out: −log EC50 RKO p27 or p21 uninduced (proliferating) (converted)
Outline: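 Viability read by Alamar Blue fluorescence (ex 544, em 590 nm), normalised to untreated wells, after 72 h, 37° C, 5% CO2 compound exposure in triplicate. Cells were uninduced (no Ponasterone A), proliferating RKO colon carcinoma p27 or p21 subclones in DMEM with 10% FCS; values are −log EC50 (mol/l).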

SMILES | EC50 [2] [nM] | EC50 [3] [nM] | EC50 [1] [nM] | EC50 [4] [nM]
CCOc1ccc2[nH]c3c(c2c1)C[C@@]1(C)C(=O)N(C)C(=O)N1[C@@H]3c1cccc(O)c1 (racemic) [Example 1, (3aSR,10RS)-6-Ethoxy-10-(3-hydroxy-phenyl)-2,3a-dimethyl-3a,4,9,10-tetrahydro-2,9,10a-triaza-cyclopenta[b]fluorene-1,3-dione] | ≥ 3160 |  | 39.8 to 251 | 
COc1ccc2[nH]c3c(c2c1)C[C@@]1(C)C(=O)N(C)C(=O)N1[C@@H]3c1cccc(O)c1 (racemic) [Example 3, (3aSR,10RS)-10-(3-Hydroxy-phenyl)-6-methoxy-2,3a-dimethyl-3a,4,9,10-tetrahydro-2,9,10a-triaza-cyclopenta[b]fluorene-1,3-dione] | ≥ 3160 |  | ≤ 39.8 | 
CN1C(=O)N2[C@H](c3cccc(O)c3)c3[nH]c4ccc(Br)cc4c3C[C@@]2(C)C1=O (racemic) [Example 4, (3aSR,10RS)-6-Bromo-10-(3-hydroxy-phenyl)-2,3a-dimethyl-3a,4,9,10-tetrahydro-2,9,10a-triaza-cyclopenta[b]fluorene-1,3-dione] | ≥ 3160 |  | 39.8 to 251 | 
CN1C(=O)N2[C@H](c3cccc(O)c3)c3[nH]c4ccc(Cl)cc4c3C[C@@]2(C)C1=O (racemic) [Example 5, (3aSR,10RS)-6-Chloro-10-(3-hydroxy-phenyl)-2,3a-dimethyl-3a,4,9,10-tetrahydro-2,9,10a-triaza-cyclopenta[b]fluorene-1,3-dione] | ≥ 3160 |  | 39.8 to 251 | 
COCCOc1ccc2[nH]c3c(c2c1)C[C@@]1(C)C(=O)N(CCN(C)C)C(=O)N1[C@@H]3c1cccc(O)c1 (racemic) [Example 6, (3aSR,10RS)-2-(2-Dimethylamino-ethyl)-10-(3-hydroxy-phenyl)-6-(2-methoxy-ethoxy)-3a-methyl-3a,4,9,10-tetrahydro-2,9,10a-triaza-cyclopenta[b]fluorene-1,3-dione] | ≥ 3160 |  | ≤ 39.8 | 
COc1ccc2[nH]c3c(c2c1)C[C@@]1(C)C(=O)N(CCN(C)C)C(=O)N1[C@@H]3c1cccc(O)c1 (racemic) [Example 7, (3aSR,10RS)-2-(2-Dimethylamino-ethyl)-10-(3-hydroxy-phenyl)-6-methoxy-3a-methyl-3a,4,9,10-tetrahydro-2,9,10a-triaza-cyclopenta[b]fluorene-1,3-dione] | ≥ 3160 |  | ≤ 39.8 | 
CCN(C)CCCN1C(=O)N2[C@H](c3cccc(O)c3)c3[nH]c4ccc(Cl)cc4c3C[C@@]2(C)C1=O (racemic) [Example 140, (3aSR,10RS)-6-Chloro-2-[3-(ethyl-methyl-amino)-propyl]-10-(3-hydroxy-phenyl)-3a-methyl-3a,4,9,10-tetrahydro-2,9,10a-triaza-cyclopenta[b]fluorene-1,3-dione] |  | ≥ 3160 |  | ≤ 39.8
COc1ccc2[nH]c3c(c2c1)C[C@@]1(C)C(=O)N(CCCNCC(F)F)C(=O)N1[C@@H]3c1cccc(O)c1 (racemic) [Example 142, (3aSR,10RS)-2-[3-(2,2-Difluoro-ethylamino)-propyl]-10-(3-hydroxy-phenyl)-6-methoxy-3a-methyl-3a,4,9,10-tetrahydro-2,9,10a-triaza-cyclopenta[b]fluorene-1,3-dione] |  | ≥ 316 |  | 39.8 to 251
COc1ccc2[nH]c3c(c2c1)C[C@@]1(C)C(=O)N(CCCN(C)CCO)C(=O)N1[C@@H]3c1cccc(O)c1 (racemic) [Example 143, (3aSR,10RS)-2-{3[(2-Hydroxy-ethyl)-methyl-amino]-propyl}-10-(3-hydroxy-phenyl)-6-methoxy-3a-methyl-3a,4,9,10-tetrahydro-2,9,10a-triaza-cyclopenta[b]fluorene-1,3-dione] |  | ≥ 316 |  | ≤ 39.8
C#CCN(C)CCCN1C(=O)N2[C@H](c3cccc(O)c3)c3[nH]c4ccc(OC)cc4c3C[C@@]2(C)C1=O (racemic) [Example 144] |  | ≥ 316 |  | 39.8 to 251

More lines, main results first:

EC50 [2] [nM] | EC50 [3] [nM] | SMILES | EC50 [1] [nM] | EC50 [4] [nM]
≥ 3160 |  | COc1ccc2[nH]c3c(c2c1)C[C@@]1(C)C(=O)N(CCCCN(C)C)C(=O)N1[C@@H]3c1cccc(O)c1 (racemic) [Example 14, (3aSR,10RS)-2-(4-Dimethylamino-butyl)-10-(3-hydroxy-phenyl)-6-methoxy-3a-methyl-3a,4,9,10-tetrahydro-2,9,10a-triaza-cyclopenta[b]fluorene-1,3-dione] | ≤ 39.8 | 
 | ≥ 3160 | C[C@@]12Cc3c([nH]c4ccc(Cl)cc34)[C@@H](c3cccc(O)c3)N1C(=O)N(CCCN1CCC1)C2=O (racemic) [Example 141, (3aSR,10RS)-2-(3-Azetidin-1-yl-propyl)-6-chloro-10-(3-hydroxy-phenyl)-3a-methyl-3a,4,9,10-tetrahydro-2,9,10a-triaza-cyclopenta[b]fluorene-1,3-dione] |  | ≤ 39.8
 | ≥ 316 | COc1ccc2[nH]c3c(c2c1)C[C@@]1(C)C(=O)N(CCCNCCO)C(=O)N1[C@@H]3c1cccc(O)c1 (racemic) [Example 145, (3aSR,10RS)-2-[3-(2-Hydroxy-ethylamino)-propyl]-10-(3-hydroxy-phenyl)-6-methoxy-3a-methyl-3a,4,9,10-tetrahydro-2,9,10a-triaza-cyclopenta[b]fluorene-1,3-dione] |  | ≤ 39.8
 | ≥ 316 | C=CCNCCCN1C(=O)N2[C@H](c3cccc(O)c3)c3[nH]c4ccc(OC)cc4c3C[C@@]2(C)C1=O (racemic) [Example 146, (3aSR,10RS)-2-(3-Allylamino-propyl)-10-(3-hydroxy-phenyl)-6-methoxy-3a-methyl-3a,4,9,10-tetrahydro-2,9,10a-triaza-cyclopenta[b]fluorene-1,3-dione] |  | ≤ 39.8
 | ≥ 316 | C#CCNCCCN1C(=O)N2[C@H](c3cccc(O)c3)c3[nH]c4ccc(OC)cc4c3C[C@@]2(C)C1=O (racemic) [Example 147, (3aSR,10RS)-10-(3-Hydroxy-phenyl)-6-methoxy-3a-methyl-2-(3-prop-2-ynylamino-propyl)-3a,4,9,10-tetrahydro-2,9,10a-triaza-cyclopenta[b]fluorene-1,3-dione] |  | ≤ 39.8
 | ≥ 316 | COc1ccc2[nH]c3c(c2c1)C[C@@]1(C)C(=O)N(CCCN2CCOCC2)C(=O)N1[C@@H]3c1cccc(O)c1 (racemic) [Example 148, (3aSR,10RS)-10-(3-Hydroxy-phenyl)-6-methoxy-3a-methyl-2-(3-morpholin-4-yl-propyl)-3a,4,9,10-tetrahydro-2,9,10a-triaza-cyclopenta[b]fluorene-1,3-dione] |  | ≤ 39.8
 | ≥ 316 | COc1ccc2[nH]c3c(c2c1)C[C@@]1(C)C(=O)N(CCCN2CC=CC2)C(=O)N1[C@@H]3c1cccc(O)c1 (racemic) [Example 149, (3aSR,10RS)-2-[3-(2,5-Dihydro-pyrrol-1-yl)-propyl]-10-(3-hydroxy-phenyl)-6-methoxy-3a-methyl-3a,4,9,10-tetrahydro-2,9,10a-triaza-cyclopenta[b]fluorene-1,3-dione] |  | ≤ 39.8
